Measurements as given in PMC9005681, “Use of AD Informer Set compounds to explore validity of novel targets in Alzheimer's disease pathology” (Alzheimer's & Dementia : Translational Research & Clinical …, 2022).

Columns and labels:
[1] = molecular target: T1, cloned human or rodent CNS receptors, channels, and transporters (PDSP panel) (Homo sapiens, UniProt P08912); assay: PDSP GPCR panel primary binding assays at 10 μM; settings: primary assay
T1 construct: expressed in transfected cells
T1 sequence (P08912 1-532): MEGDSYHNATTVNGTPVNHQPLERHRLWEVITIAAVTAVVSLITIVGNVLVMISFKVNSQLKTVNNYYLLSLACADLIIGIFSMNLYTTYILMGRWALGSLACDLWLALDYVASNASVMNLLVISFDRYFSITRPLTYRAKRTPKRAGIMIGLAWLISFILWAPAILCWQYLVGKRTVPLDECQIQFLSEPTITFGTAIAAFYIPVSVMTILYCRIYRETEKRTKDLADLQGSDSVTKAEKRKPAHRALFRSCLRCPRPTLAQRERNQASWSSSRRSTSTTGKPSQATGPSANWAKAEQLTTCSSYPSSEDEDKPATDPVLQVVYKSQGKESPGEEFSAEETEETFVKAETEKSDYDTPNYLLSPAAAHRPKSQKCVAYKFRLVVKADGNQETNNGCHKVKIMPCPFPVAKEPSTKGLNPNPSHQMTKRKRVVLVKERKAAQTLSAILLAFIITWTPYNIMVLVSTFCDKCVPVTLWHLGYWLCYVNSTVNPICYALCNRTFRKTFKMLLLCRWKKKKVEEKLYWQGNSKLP
Description: (§1) GPCR panel: Screening against the receptors within the PDSP panel offers an assessment of off-target pharmacological activity at cloned human or rodent CNS receptors, channels, and transporters that could confound CNS-related phenotypes. A total of 46–47 primary binding assays were run in quadruplicate on these compounds at 10 μM, with follow-up secondary binding assays in 11-point dose-response in triplicate for select compounds versus select receptors. Secondary binding assays were executed for all receptors where test compound displaced an average of >50% of radio-labeled standard ligand. As an exception, no secondary assays were carried out for H3, PBR, or GABAA. […]

[2] = molecular target: T2, cloned human or rodent CNS receptors, channels, and transporters (PDSP panel) (Homo sapiens, UniProt P18089); assay: PDSP GPCR panel primary binding assays at 10 μM; settings: primary assay
T2 construct: expressed in transfected cells
T2 sequence (P18089 1-450): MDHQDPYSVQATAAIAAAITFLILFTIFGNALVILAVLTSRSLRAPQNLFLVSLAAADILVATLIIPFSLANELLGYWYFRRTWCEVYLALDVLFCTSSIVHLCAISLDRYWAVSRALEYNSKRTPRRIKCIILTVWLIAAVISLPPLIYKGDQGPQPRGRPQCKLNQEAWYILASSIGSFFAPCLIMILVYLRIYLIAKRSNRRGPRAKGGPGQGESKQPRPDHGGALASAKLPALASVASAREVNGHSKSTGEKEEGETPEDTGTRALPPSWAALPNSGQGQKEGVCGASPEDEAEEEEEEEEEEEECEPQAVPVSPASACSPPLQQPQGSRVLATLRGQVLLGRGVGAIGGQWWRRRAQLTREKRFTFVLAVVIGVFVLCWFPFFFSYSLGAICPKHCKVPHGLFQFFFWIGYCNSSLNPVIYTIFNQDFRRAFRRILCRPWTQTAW
Description: as §1

[3] = molecular target: T3, cloned human or rodent CNS receptors, channels, and transporters (PDSP panel) (Homo sapiens, UniProt P21918); assay: PDSP GPCR panel primary binding assays at 10 μM; settings: primary assay
T3 construct: expressed in transfected cells
Description: as §1

[4] = molecular target: T4, cloned human or rodent CNS receptors, channels, and transporters (PDSP panel) (Homo sapiens, UniProt P28222); assay: PDSP GPCR panel primary binding assays at 10 μM; settings: primary assay
T4 construct: expressed in transfected cells
Description: as §1

[5] = molecular target: T5, cloned human or rodent CNS receptors, channels, and transporters (PDSP panel) (Homo sapiens, UniProt P35368); assay: PDSP GPCR panel primary binding assays at 10 μM; settings: primary assay
T5 construct: expressed in transfected cells
T5 sequence (P35368 1-520): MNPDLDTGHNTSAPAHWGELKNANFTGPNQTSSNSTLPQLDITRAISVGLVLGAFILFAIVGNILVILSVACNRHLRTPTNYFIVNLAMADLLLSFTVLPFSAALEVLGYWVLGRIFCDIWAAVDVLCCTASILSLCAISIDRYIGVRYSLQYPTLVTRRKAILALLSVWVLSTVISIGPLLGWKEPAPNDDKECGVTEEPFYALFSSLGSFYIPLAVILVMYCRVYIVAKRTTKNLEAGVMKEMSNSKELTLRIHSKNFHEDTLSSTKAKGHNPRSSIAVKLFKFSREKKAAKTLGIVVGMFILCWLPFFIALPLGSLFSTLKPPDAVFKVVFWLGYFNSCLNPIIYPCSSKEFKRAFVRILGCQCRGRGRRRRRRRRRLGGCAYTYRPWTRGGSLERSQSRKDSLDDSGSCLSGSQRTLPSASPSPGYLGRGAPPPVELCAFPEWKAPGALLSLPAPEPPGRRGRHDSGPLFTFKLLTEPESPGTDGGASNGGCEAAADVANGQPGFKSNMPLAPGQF
Description: as §1

[6] = Snapshot IV PK in CD1 mice; type: in vivo; settings: for Vd: read-out: Vss
Description: PK data: For snapshot PK studies, pooled plasma was analyzed at 0.5h, 1h, 2h, and 4h following
a single IV dose (3 mg/kg) in CD1 mice (2 mice per cohort) for each compound (Table 2). […]

[7] = tested on: cellular system; parameters: method as in column References for potency and dosing (the 5th table c13); settings: published data; References for potency and dosing; cited from earlier work
[8] = Receptor M5, 10 μM, mean of Inhibition 1-4
[9] = Receptor Alpha2B, 10 μM, mean of Inhibition 1-4
[10] = Receptor D5, 10 μM, mean of Inhibition 1-4
[11] = Receptor 5-HT1B, 10 μM, mean of Inhibition 1-4
[12] = Receptor Alpha1B, 10 μM, mean of Inhibition 1-4
[13] = CD1, mouse, plasma, iv, 3 mg/kg

T4 sequence (P28222 whole entry): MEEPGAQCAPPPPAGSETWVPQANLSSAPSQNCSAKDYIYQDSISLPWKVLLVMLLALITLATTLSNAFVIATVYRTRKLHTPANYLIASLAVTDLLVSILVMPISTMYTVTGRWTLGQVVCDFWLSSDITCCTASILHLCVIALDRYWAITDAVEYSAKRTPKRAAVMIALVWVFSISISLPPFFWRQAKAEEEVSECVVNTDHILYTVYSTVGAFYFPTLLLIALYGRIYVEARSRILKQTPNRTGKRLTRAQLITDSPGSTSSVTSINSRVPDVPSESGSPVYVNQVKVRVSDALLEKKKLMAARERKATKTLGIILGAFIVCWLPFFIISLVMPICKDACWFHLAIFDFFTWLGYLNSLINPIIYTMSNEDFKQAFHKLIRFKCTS
T3 sequence (P21918 whole entry): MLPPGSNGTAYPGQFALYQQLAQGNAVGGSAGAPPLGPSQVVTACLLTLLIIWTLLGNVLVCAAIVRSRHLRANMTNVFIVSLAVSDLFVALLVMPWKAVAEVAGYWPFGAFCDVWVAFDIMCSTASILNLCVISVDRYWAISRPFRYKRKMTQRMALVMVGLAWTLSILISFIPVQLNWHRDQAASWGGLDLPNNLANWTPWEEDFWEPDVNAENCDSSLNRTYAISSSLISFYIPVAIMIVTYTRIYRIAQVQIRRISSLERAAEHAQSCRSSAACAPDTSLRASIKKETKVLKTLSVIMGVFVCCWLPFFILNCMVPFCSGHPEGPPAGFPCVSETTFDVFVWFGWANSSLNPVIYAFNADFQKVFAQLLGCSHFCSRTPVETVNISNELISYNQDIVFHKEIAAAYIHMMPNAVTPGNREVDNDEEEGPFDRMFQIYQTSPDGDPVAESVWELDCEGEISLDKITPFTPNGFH

c1cn2cc(-c3ccc4cn[nH]c4c3)nc(Nc3ccc(N4CCOCC4)cc3)c2n1 [UNC10302678A, Entospletinib (GS-9973)]
Inhibition 1 ([1]; Receptor M5, 10 μM): -6.98%
Inhibition 2 ([1]; Receptor M5, 10 μM): -7.99%
Inhibition 3 ([1]; Receptor M5, 10 μM): 1.47%
Inhibition 4 ([1]; Receptor M5, 10 μM): 5.9%
Mean % [1, 8]: -1.9%
Inhibition 1 ([2]; Receptor Alpha2B, 10 μM): 1.15%
Inhibition 2 ([2]; Receptor Alpha2B, 10 μM): 1.83%
Inhibition 3 ([2]; Receptor Alpha2B, 10 μM): -12.73%
Inhibition 4 ([2]; Receptor Alpha2B, 10 μM): -4.05%
Mean % [2, 9]: -3.45%
Inhibition 1 ([3]; Receptor D5, 10 μM): 5.49%
Inhibition 2 ([3]; Receptor D5, 10 μM): 5.93%
Inhibition 3 ([3]; Receptor D5, 10 μM): 8.99%
Inhibition 4 ([3]; Receptor D5, 10 μM): 11.03%
Mean % [3, 10]: 7.86%
Inhibition 1 ([4]; Receptor 5-HT1B, 10 μM): 21.82%
Inhibition 2 ([4]; Receptor 5-HT1B, 10 μM): -6.09%
Inhibition 3 ([4]; Receptor 5-HT1B, 10 μM): 2.36%
Inhibition 4 ([4]; Receptor 5-HT1B, 10 μM): -8.65%
Mean % [4, 11]: 2.36%
Inhibition 1 ([5]; Receptor Alpha1B, 10 μM): 3.98%
Inhibition 2 ([5]; Receptor Alpha1B, 10 μM): -28.67%
Inhibition 3 ([5]; Receptor Alpha1B, 10 μM): -18.82%
Inhibition 4 ([5]; Receptor Alpha1B, 10 μM): -2.78%
Mean % [5, 12]: -11.57%
Cmax ([6]; CD1, in vivo, mouse, 3.0 mg/kg): 926 ng/mL
clearance ([6]; CD1, plasma, mouse, 3.0 mg/kg): 28.5 mL/min/kg
half-life ([6]; CD1, plasma, mouse, 3.0 mg/kg): 0.9 h
Vd ([6]; CD1, plasma, mouse, 3.0 mg/kg): 2.34 L/kg
Reported as cell active (<10 μM) [7]: Y (Published data supports that the compound is active in a cellular system when dosed at 10 μM (Y/N))

CC(=O)N1CCC(NC(=O)NC23CC4CC(CC(C4)C2)C3)CC1 [UNC10302683A, AR9281]
Mean % ([1]; M5, mean inhibition): -4.97%
Inhibition 1 ([1]; M5, replicate 1): 0.06%
Inhibition 2 ([1]; M5, replicate 2): -4.77%
Inhibition 3 ([1]; M5, replicate 3): -10.3%
Inhibition 4 ([1]; M5, replicate 4): -4.87%
Mean % ([2]; Alpha2B, mean inhibition): 16.32%
Inhibition 1 ([2]; Alpha2B, replicate 1): 9.7%
Inhibition 2 ([2]; Alpha2B, replicate 2): 20.78%
Inhibition 3 ([2]; Alpha2B, replicate 3): 26.1%
Inhibition 4 ([2]; Alpha2B, replicate 4): 8.7%
Mean % ([3]; D5, mean inhibition): -11.88%
Inhibition 1 ([3]; D5, replicate 1): -7.18%
Inhibition 2 ([3]; D5, replicate 2): -13.14%
Inhibition 3 ([3]; D5, replicate 3): -18.03%
Inhibition 4 ([3]; D5, replicate 4): -9.17%
Mean % ([4]; 5-HT1B, mean inhibition): -0.64%
Inhibition 1 ([4]; 5-HT1B, replicate 1): 23.19%
Inhibition 2 ([4]; 5-HT1B, replicate 2): -3.93%
Inhibition 3 ([4]; 5-HT1B, replicate 3): -10.42%
Inhibition 4 ([4]; 5-HT1B, replicate 4): -11.4%
Mean % ([5]; Alpha1B, mean inhibition): 5.33%
Inhibition 1 ([5]; Alpha1B, replicate 1): 32.86%
Inhibition 2 ([5]; Alpha1B, replicate 2): -1.86%
Inhibition 3 ([5]; Alpha1B, replicate 3): 1.69%
Inhibition 4 ([5]; Alpha1B, replicate 4): -11.37%
clearance [6, 13]: 93 mL/min/kg
Cmax ([6]; CD1, plasma, mouse, 3.0 mg/kg): 1830 ng/mL
half-life ([6]; CD1, plasma, mouse, 3.0 mg/kg): 0.24 h
Vd ([6]; CD1, plasma, mouse, 3.0 mg/kg): 0.47 L/kg
CL ([6]; mouse, 3.0 mg/kg): 93.1 mL/min/kg
Reported as cell active (<10 μM) [7]: Y (Published data supports that the compound is active in a cellular system when dosed at 10 μM (Y/N))

Cl.NC(=O)c1cnc(N[C@@H]2CCCC[C@@H]2N)nc1Nc1cccc(-n2nccn2)c1 [UNC10302682A, P505-15 (PRT06207 HCl)]
Inhibition 1 ([1]; Receptor M5, 10 μM): 25.92%
Inhibition 2 ([1]; Receptor M5, 10 μM): 13.95%
Inhibition 3 ([1]; Receptor M5, 10 μM): 6.2%
Inhibition 4 ([1]; Receptor M5, 10 μM): -1.55%
Mean % [1, 8]: 11.13%
Inhibition 1 ([2]; Receptor Alpha2B, 10 μM): 4.86%
Inhibition 2 ([2]; Receptor Alpha2B, 10 μM): 6.29%
Inhibition 3 ([2]; Receptor Alpha2B, 10 μM): -7.3%
Inhibition 4 ([2]; Receptor Alpha2B, 10 μM): -0.22%
Mean % [2, 9]: 0.91%
Inhibition 1 ([3]; Receptor D5, 10 μM): 21.97%
Inhibition 2 ([3]; Receptor D5, 10 μM): 17.01%
Inhibition 3 ([3]; Receptor D5, 10 μM): 7.24%
Inhibition 4 ([3]; Receptor D5, 10 μM): 14.53%
Mean % [3, 10]: 15.19%
Inhibition 1 ([4]; Receptor 5-HT1B, 10 μM): 53.66%
Inhibition 2 ([4]; Receptor 5-HT1B, 10 μM): 22.41%
Inhibition 3 ([4]; Receptor 5-HT1B, 10 μM): 27.71%
Inhibition 4 ([4]; Receptor 5-HT1B, 10 μM): 32.24%
Mean % [4, 11]: 34.01%
Inhibition 1 ([5]; Receptor Alpha1B, 10 μM): 60.7%
Inhibition 2 ([5]; Receptor Alpha1B, 10 μM): 57.49%
Inhibition 3 ([5]; Receptor Alpha1B, 10 μM): 49.58%
Inhibition 4 ([5]; Receptor Alpha1B, 10 μM): 52.45%
Mean % [5, 12]: 55.06%
clearance [6, 13]: 49.7 mL/min/kg
Cmax ([6]; CD1, plasma, mouse, 3.0 mg/kg): 595 ng/mL
half-life ([6]; CD1, plasma, mouse, 3.0 mg/kg): 1.64 h
Vd ([6]; CD1, plasma, mouse, 3.0 mg/kg): 6.26 L/kg
Reported as cell active (<10 μM) [7]: Y (Published data supports that the compound is active in a cellular system when dosed at 10 μM (Y/N))

O=c1oc2ccccc2cc1-c1cn2cc(Cc3ccc(F)cc3)sc2n1 [UNC10302680A, iMDK]
Inhibition 1 ([1]; Receptor M5, 10 μM): -0.74%
Inhibition 2 ([1]; Receptor M5, 10 μM): -17.55%
Inhibition 3 ([1]; Receptor M5, 10 μM): -6.68%
Inhibition 4 ([1]; Receptor M5, 10 μM): -10.7%
Mean % [1, 8]: -8.92%
Inhibition 1 ([2]; Receptor Alpha2B, 10 μM): 0.83%
Inhibition 2 ([2]; Receptor Alpha2B, 10 μM): 1.88%
Inhibition 3 ([2]; Receptor Alpha2B, 10 μM): -7.31%
Inhibition 4 ([2]; Receptor Alpha2B, 10 μM): 7.87%
Mean % [2, 9]: 0.82%
Inhibition 1 ([3]; Receptor D5, 10 μM): 22.41%
Inhibition 2 ([3]; Receptor D5, 10 μM): 16.72%
Inhibition 3 ([3]; Receptor D5, 10 μM): -1.22%
Inhibition 4 ([3]; Receptor D5, 10 μM): 7.82%
Mean % [3, 10]: 11.43%
Inhibition 1 ([4]; Receptor 5-HT1B, 10 μM): 28.3%
Inhibition 2 ([4]; Receptor 5-HT1B, 10 μM): -13.17%
Inhibition 3 ([4]; Receptor 5-HT1B, 10 μM): 0.98%
Inhibition 4 ([4]; Receptor 5-HT1B, 10 μM): -13.17%
Mean % [4, 11]: 0.74%
Inhibition 1 ([5]; Receptor Alpha1B, 10 μM): 2.49%
Inhibition 2 ([5]; Receptor Alpha1B, 10 μM): 0.66%
Inhibition 3 ([5]; Receptor Alpha1B, 10 μM): -2.09%
Inhibition 4 ([5]; Receptor Alpha1B, 10 μM): -5.18%
Mean % [5, 12]: -1.03%
clearance [6, 13]: 37.8 mL/min/kg
Cmax ([6]; CD1, plasma, mouse, 3.0 mg/kg): 1570 ng/mL
half-life ([6]; CD1, plasma, mouse, 3.0 mg/kg): 1.16 h
Vd ([6]; CD1, plasma, mouse, 3.0 mg/kg): 2.61 L/kg
Reported as cell active (<10 μM) [7]: Y (Published data supports that the compound is active in a cellular system when dosed at 10 μM (Y/N))
